The conditions of series [1]: cited from earlier work.
The subject of series [2] is phosphodiesterase I from snake venom (Crotalus atrox), PDE type IV [포스포디에스테라제 I은 뱀독 (Crotalus atrox) 유래 PDE 타입 IV]. Description: Phosphodiesterase inhibition ([3H] cAMP SPA). In kind it is biochemical.
The test system of series [3] is bovine vascular endothelial cells (CPAE cell line) [소혈관 내피세포(CPAE cell line)]. Put plainly: NO production in CPAE endothelial cells (total nitrate/nitrite, Nims method). It counts as cell-based.
Series [4] has as its system bovine endothelial cells (CPAE) [소내피세포(CPAE)]. It counts as cell-based. The settings on record: 24 h.
In series [5] the test system is phosphodiesterase (PDE) [포스포디에스터라제]. Put plainly: PDE inhibition in combination with existing PDE inhibitors. In kind it is biochemical. As to conditions: existing PDE inhibitor combined with DX fraction (20, 10, 4 μg); in words.

Take `CN1CC(=O)N2[C@H](c3ccc4c(c3)OCO4)c3[nH]c4ccccc4c3C[C@@H]2C1=O` [시알리스]: the “duration of drug effect” value in series [1] (background) is on record as at most 36 h.

With `CCCc1nc(C)c2c(=O)[nH]c(-c3cc(S(=O)(=O)N4CCN(CC)CC4)ccc3OCC)nn12` [레비트라], the duration of erection in series [1] (background) is on record as at most 36 h. As to “5-{6-(디메틸아미노)-9H-푸린-9-일}-테트라히드로-4'-푸란-3'-올-5'-o-테트라파이로(tetrafyro)-2H-피란-3'',4'',5''-트리올 [RPC-IV]”, the phosphodiesterase inhibition entry in series [2] (0, 2, 10, 20 μg, in words) is reported as “용량의존적 저해”. In series [2] (PDE [3H] cAMP SPA), this compound yielded an IC50 of 0.88 µg/mL. Further, the “NO production (540 nm)” value in series [3] (RP-HPLC fractions, absorbance at 540 nm) stood at 1.426. The NO activity entry in series [3] (chromatographic fractions, in words) was “최대로 방출”. Further, in series [4], the cell viability is recorded as 86.9%. Regarding `CCCOc1ccccc1-c1nc2nn[nH]c2c(=O)[nH]1` [자프리나스트(zaprinast)], the erection induction entry in series [1] (compared with Viagra, Trigo-Rocha 1993, Taher 1994) is on record as “비아그라보다 다소 낮은 정도로 발기를 유도”. For the compound `COc1cc2c(cc1OC)-c1c/c(=N\c3c(C)cc(C)cc3C)n(C)c(=O)n1CC2` [Trequinsin, 하이드로클로라이드], the “PDE inhibition on combined administration” value in series [5] is recorded as “상승작용”.

Usually IC50 stands for the concentration that inhibits the measured activity by half. The term cell viability denotes the share of living cells, or the viability signal relative to a control. High values mean better survival, low ones a greater loss of cells.

Source of the values: KR20070037041A, “누에 수번데기로부터 아데노신 유도체 화합물을 정제하는방법 및 아데노신 유도체 화합물을 포함하는 발기부전치료용 조성물” (대한민국(관리부서:농촌진흥청장), priority 2005, dated 2007).
